Test results published in patent US20070031328A1, “Radiolabeled-pegylation of ligands for use as imaging agents” (priority 2005, published 2007).

Assay: Biodistribution studies in normal mice
Assay type: in vivo, male ICR mice
Details: tail vein injection, avg of 3 mice ± SD
Procedure: While under isoflurane anesthesia, 0.15 mL of a saline solution containing the F-18 tracers (10-20 uCi) was injected directly into the lateral tail vein of male ICR mice. The mice (n=3 for each time point) were sacrificed by cervical dislocation at 2, 30, 60 and 120 minutes post-injection. The organs of interest were removed, weighed and assayed for radioactivity content with an automatic gamma counter. The percentage dose per organ was calculated by a comparison of the tissue counts to suitably diluted aliquots of the injected material. Total activities of blood and bone were calculated under the assumption that they were 7% and 14% of the body weight, respectively. The % dose/g of samples was calculated by comparing the sample counts with the count of the diluted initial dose.

SMILES	Blood biodistribution (2 min)	Blood biodistribution (30 min)	Blood biodistribution (1 hr)	Blood biodistribution (2 hr)	Bone biodistribution (2 min)	Bone biodistribution (30 min)	Bone biodistribution (1 hr)	Bone biodistribution (2 hr)	Brain biodistribution (2 min)	Brain biodistribution (30 min)	Brain biodistribution (1 hr)	Brain biodistribution (2 hr)	Heart biodistribution (2 min)	Heart biodistribution (30 min)	Heart biodistribution (1 hr)	Heart biodistribution (2 hr)	Kidney biodistribution (2 min)	Kidney biodistribution (30 min)	Kidney biodistribution (1 hr)	Kidney biodistribution (2 hr)	also measured
CNc1ccc(-c2nc3ccc(OCCOCCOCC[18F])cc3s2)cc1 [[^18F]5b]	6.29 ± 1.19 % dose/g	3.41 ± 0.07 % dose/g	3.91 ± 0.23 % dose/g	4.04 ± 0.45 % dose/g	2.13 ± 0.16 % dose/g	1.48 ± 0.03 % dose/g	1.82 ± 0.04 % dose/g	2.41 ± 0.28 % dose/g	5.53 ± 0.56 % dose/g	2.33 ± 0.15 % dose/g	2.18 ± 0.09 % dose/g	1.96 ± 0.13 % dose/g	6.26 ± 1.12 % dose/g	3.22 ± 0.33 % dose/g	3.06 ± 0.15 % dose/g	2.50 ± 0.09 % dose/g	9.02 ± 0.77 % dose/g	5.27 ± 0.77 % dose/g	3.97 ± 0.25 % dose/g	2.97 ± 0.07 % dose/g	Liver biodistribution (2 min): 21.84 ± 1.56 % dose/g; Liver biodistribution (30 min): 13.75 ± 1.88 % dose/g; Liver biodistribution (1 hr): 11.22 ± 0.82 % dose/g; Liver biodistribution (2 hr): 9.13 ± 1.11 % dose/g; Lung biodistribution (2 min): 7.35 ± 1.50 % dose/g; Lung biodistribution (30 min): 3.94 ± 0.29 % dose/g; Lung biodistribution (1 hr): 3.63 ± 0.25 % dose/g; Lung biodistribution (2 hr): 3.24 ± 0.10 % dose/g; Muscle biodistribution (2 min): 1.40 ± 0.11 % dose/g; Muscle biodistribution (30 min): 1.92 ± 0.34 % dose/g; Muscle biodistribution (1 hr): 1.58 ± 0.13 % dose/g; Muscle biodistribution (2 hr): 1.38 ± 0.11 % dose/g; Skin biodistribution (2 min): 2.09 ± 0.22 % dose/g; Skin biodistribution (30 min): 2.27 ± 0.17 % dose/g; Skin biodistribution (1 hr): 1.92 ± 0.13 % dose/g; Skin biodistribution (2 hr): 1.57 ± 0.06 % dose/g; Spleen biodistribution (2 min): 5.24 ± 0.67 % dose/g; Spleen biodistribution (30 min): 2.66 ± 0.14 % dose/g; Spleen biodistribution (1 hr): 2.84 ± 0.13 % dose/g; Spleen biodistribution (2 hr): 2.46 ± 0.05 % dose/g
CNc1ccc(-c2nc3ccc(OCCOCC[18F])cc3s2)cc1 [[^18F]5a]	3.37 ± 0.46 % dose/g	3.60 ± 0.13 % dose/g	4.55 ± 0.40 % dose/g	4.38 ± 0.14 % dose/g	1.69 ± 0.21 % dose/g	2.28 ± 0.20 % dose/g	3.17 ± 0.39 % dose/g	6.35 ± 1.32 % dose/g	10.27 ± 1.30 % dose/g	4.59 ± 0.47 % dose/g	3.94 ± 0.04 % dose/g	3.86 ± 0.35 % dose/g	8.32 ± 0.37 % dose/g	3.49 ± 0.27 % dose/g	3.81 ± 0.25 % dose/g	3.59 ± 0.03 % dose/g	13.02 ± 1.04 % dose/g	4.54 ± 0.62 % dose/g	3.98 ± 0.24 % dose/g	3.18 ± 0.16 % dose/g	Liver biodistribution (2 min): 19.02 ± 1.06 % dose/g; Liver biodistribution (30 min): 7.98 ± 0.60 % dose/g; Liver biodistribution (1 hr): 6.35 ± 0.46 % dose/g; Liver biodistribution (2 hr): 5.05 ± 0.43 % dose/g; Lung biodistribution (2 min): 7.79 ± 0.34 % dose/g; Lung biodistribution (30 min): 3.91 ± 0.28 % dose/g; Lung biodistribution (1 hr): 3.84 ± 0.55 % dose/g; Lung biodistribution (2 hr): 3.63 ± 0.15 % dose/g; Muscle biodistribution (2 min): 0.82 ± 0.12 % dose/g; Muscle biodistribution (30 min): 2.83 ± 0.22 % dose/g; Muscle biodistribution (1 hr): 2.76 ± 0.17 % dose/g; Muscle biodistribution (2 hr): 2.36 ± 0.11 % dose/g; Skin biodistribution (2 min): 1.08 ± 0.22 % dose/g; Skin biodistribution (30 min): 3.14 ± 0.22 % dose/g; Skin biodistribution (1 hr): 3.15 ± 0.28 % dose/g; Skin biodistribution (2 hr): 2.62 ± 0.16 % dose/g; Spleen biodistribution (2 min): 6.92 ± 0.79 % dose/g; Spleen biodistribution (30 min): 3.93 ± 0.29 % dose/g; Spleen biodistribution (1 hr): 3.87 ± 0.61 % dose/g; Spleen biodistribution (2 hr): 3.32 ± 0.16 % dose/g
CNc1ccc(-c2nc3ccc(OCCOCCOCCOCCOCCOCC[18F])cc3s2)cc1 [[^18F]5c]	3.54 ± 0.12 % dose/g	2.52 ± 0.29 % dose/g	2.46 ± 0.29 % dose/g	1.54 ± 0.19 % dose/g	1.68 ± 0.60 % dose/g	1.20 ± 0.29 % dose/g	1.68 ± 0.17 % dose/g	2.31 ± 0.37 % dose/g	2.57 ± 0.12 % dose/g	1.69 ± 0.23 % dose/g	1.80 ± 0.25 % dose/g	1.29 ± 0.17 % dose/g	9.37 ± 0.18 % dose/g	2.11 ± 0.27 % dose/g	1.82 ± 0.28 % dose/g	1.19 ± 0.15 % dose/g	23.00 ± 0.89 % dose/g	5.01 ± 0.84 % dose/g	3.50 ± 0.86 % dose/g	1.27 ± 0.08 % dose/g	Liver biodistribution (2 min): 12.43 ± 1.11 % dose/g; Liver biodistribution (30 min): 3.94 ± 0.29 % dose/g; Liver biodistribution (1 hr): 2.86 ± 0.38 % dose/g; Liver biodistribution (2 hr): 1.67 ± 0.32 % dose/g; Lung biodistribution (2 min): 4.68 ± 0.27 % dose/g; Lung biodistribution (30 min): 2.41 ± 0.37 % dose/g; Lung biodistribution (1 hr): 2.08 ± 0.32 % dose/g; Lung biodistribution (2 hr): 1.24 ± 0.16 % dose/g; Muscle biodistribution (2 min): 1.60 ± 0.98 % dose/g; Muscle biodistribution (30 min): 1.87 ± 0.38 % dose/g; Muscle biodistribution (1 hr): 1.52 ± 0.24 % dose/g; Muscle biodistribution (2 hr): 0.93 ± 0.07 % dose/g; Skin biodistribution (2 min): 0.95 ± 0.12 % dose/g; Skin biodistribution (30 min): 2.14 ± 1.03 % dose/g; Skin biodistribution (1 hr): 1.42 ± 0.14 % dose/g; Skin biodistribution (2 hr): 0.91 ± 0.10 % dose/g; Spleen biodistribution (2 min): 4.74 ± 0.23 % dose/g; Spleen biodistribution (30 min): 2.05 ± 0.18 % dose/g; Spleen biodistribution (1 hr): 1.87 ± 0.26 % dose/g; Spleen biodistribution (2 hr): 1.13 ± 0.16 % dose/g
